Test results published in publication PMC12430169, “Notoginsenoside R1, a Metabolite from Panax notoginseng, Prevents Paclitaxel-Induced Peripheral Neuropathic Pain in Mice” (Molecules, 2025).

Biological target: T1, human recombinant monoacylglycerol lipase (MAGL) (Homo sapiens, UniProt Q99685)
T1 construct: gene MGLL
T1 sequence (Q99685 1-303): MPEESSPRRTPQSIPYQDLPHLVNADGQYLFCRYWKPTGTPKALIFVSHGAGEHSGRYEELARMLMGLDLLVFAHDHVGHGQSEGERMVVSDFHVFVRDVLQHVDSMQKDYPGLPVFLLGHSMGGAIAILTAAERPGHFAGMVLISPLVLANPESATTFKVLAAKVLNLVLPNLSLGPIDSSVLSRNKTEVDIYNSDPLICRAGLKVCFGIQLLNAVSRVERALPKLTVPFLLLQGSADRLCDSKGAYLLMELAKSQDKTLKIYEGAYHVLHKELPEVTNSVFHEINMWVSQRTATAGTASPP
Assay: colorimetric MAGL inhibitor screening kit (Cayman), 4-nitrophenyl acetate hydrolysis at […] nm; […] inhibition at […] at […] min, […] at […] min; inhibition falls with concentration
Format: biochemical

CC(C)=CCC[C@](C)(O[C@@H]1O[C@H](CO)[C@@H](O)[C@H](O)[C@H]1O)[C@H]1CC[C@]2(C)[C@@H]1[C@H](O)C[C@@H]1[C@@]3(C)CC[C@H](O)C(C)(C)[C@@H]3[C@@H](O[C@@H]3O[C@H](CO)[C@@H](O)[C@H](O)[C@H]3O[C@@H]3OC[C@@H](O)[C@H](O)[C@H]3O)C[C@]12C [NGR1, Notoginsenoside R1] showed an inhibition at 1 µM of 41%.
